Laboratory results as given in article PMC3832545 (PLoS ONE, 2013).
Marks after values point to notes of the source that are not given here.

Tests used:
[1] = system: PI3K signalling pathway in MC38 cell allografts; test: Signalling in MC38 tumor allografts in vivo, Western blot; design: species or system mouse; settings: MC38 tumor allografts collected 1 h after sc administration, DIO-mice
Description: We focused on different endpoints in these animal experiments and monitored tumor growth in all experiments, see Table 1. The animal experiments were performed as described recently. […] Animal care and treatments were conducted in accordance with established guidelines and protocols approved by the Lady Davis Institute (protocol # 5951) and McGill University's Animal Ethics Committee. Mice were housed one mouse per cage with ad libitum access to tap water and high- or low fat diet, respectively, throughout the studies. The temperature in the animal rooms was maintained at 20-25°C with a light/dark cycle of 14/10 hours. Mice were acclimatized for 7-10 days before experimental procedures were initiated. At experimental day 0, 2.0×10^5 (experiment A) or 5.0×10^5 (all other experiments) MC38 cells, suspended in 100 μl phosphate-buffered saline (PBS), were injected subcutaneously (sc) in the right flank of the mice. […] The size of the tumor allografts was measured three times per week and the volume calculated using the following formula: length × width^2 × 0.52. Based on the tumor volume data for each mouse, we calculated the area under the tumor growth curves (tumor growth AUC). At termination of the experiments, mice were anesthetized with isoflurane. […] Incubation with secondary antibody (horse radish peroxidase-conjugated goat anti-rabbit IgG (Santa-Cruz Biotechnology, Santa Cruz, CA, USA, cat. no 5401) and visualization of protein bands was done as described previously. The intensity of protein bands was quantified using the software ImagePro (BioRad). In each cell signalling experiment, band intensities were normalized to the mean of the vehicle-treated samples. IR and IGF-1R bands in the liver, muscle colon and MC38 cell allografts were normalized to mean band intensities in liver and muscle samples, respectively.

[2] = Blood glucose (pharmacodynamics) after sc injection in DIO-mice; type: in vivo, mouse; settings: 600 nmol/kg sc, n = 8
Description: Blood was collected by puncture of the saphenous vein and blood glucose measured using a OneTouch Ultra Glucometer (LifeScan, Inc., Milpitas, CA, USA).

[3] = system: MC38 cell allografts; test: Growth of MC38 cell tumor allografts in mice with diet-induced obesity; type: in vivo, mouse; settings: 600 nmol/kg sc twice daily; for Tumor end volume, mean / Tumor end volume, fold change relative to vehicle: day 14; for AUC tumor growth, mean / AUC tumor growth, fold change relative to vehicle: day 0 to 14
Description: We focused on different endpoints in these animal experiments and monitored tumor growth in all experiments, see Table 1. The animal experiments were performed as described recently. […] Animal care and treatments were conducted in accordance with established guidelines and protocols approved by the Lady Davis Institute (protocol # 5951) and McGill University's Animal Ethics Committee. Mice were housed one mouse per cage with ad libitum access to tap water and high- or low fat diet, respectively, throughout the studies. The temperature in the animal rooms was maintained at 20-25°C with a light/dark cycle of 14/10 hours. Mice were acclimatized for 7-10 days before experimental procedures were initiated. At experimental day 0, 2.0×10^5 (experiment A) or 5.0×10^5 (all other experiments) MC38 cells, suspended in 100 μl phosphate-buffered saline (PBS), were injected subcutaneously (sc) in the right flank of the mice. […] The size of the tumor allografts was measured three times per week and the volume calculated using the following formula: length × width^2 × 0.52. Based on the tumor volume data for each mouse, we calculated the area under the tumor growth curves (tumor growth AUC). At termination of the experiments, mice were anesthetized with isoflurane. Blood was collected by cardiac puncture and immediately after euthanasia by cervical dislocation, samples of the liver, colon, gastrocnemius muscle and the MC38 cell tumor allografts were dissected out and snap-frozen in liquid nitrogen for later preparation of tissue lysate. The effect of treatment on tumor growth in each of the five animal experiments were analysed in a one-way ANOVA followed by pairwise comparison of each treatment with vehicle using multiple t-tests with Dunnetts correction for each of the two tumor growth endpoints; tumor end volume and area under the tumor growth curves (tumor growth AUC). The results of this analysis for each experiment, i.e., mean values for each treatment, 95% confidence intervals and the fold change of each treatment relative to vehicle, are shown in Table 3. To examine treatment-related effects on tumor growth across all five animal experiments, we for each endpoint (tumor end volume and tumor growth AUC) pooled all data in one dataset and analysed them in a mixed linear model with treatment as a fixed explanatory variable and experiment as a random effect. No significant interaction between treatment and experiment was found for the any of the two outcomes (tumor end volume and tumor growth AUC). To further explore the differences between treatments, pairwise comparisons of each type of treatment were done using multiple t-test with Bonferonni correction. No outliers were observed among the 131 observations of tumor end volume, whereas one outlier was identified among the 131 observations of tumor growth AUC.

[4] = all experiments (A–E) pooled, mixed linear model, DIO-mice
[5] = all experiments (A–E) pooled, mixed linear model, one outlier excluded, DIO-mice
[6] = experiment C, n = 6, 5.0×10^5 MC38 cells sc, DIO-mice
[7] = experiment D, n = 8–10, 5.0×10^5 MC38 cells sc, DIO-mice
[8] = experiment A, n = 6, 2.0×10^5 MC38 cells sc, DIO-mice
[9] = experiment A, n = 6, 2.0×10^5 MC38 cells sc, male C57BL/6 DIO-mice
[10] = experiment B, n = 6, 5.0×10^5 MC38 cells sc, DIO-mice
[11] = experiment E, n = 10, 5.0×10^5 MC38 cells sc, DIO-mice

For “IGF-1: recombinant human IGF-1 (Increlex, IPSEN Pharma GmbH)”, the “Activation of Akt, p70S6K and mTOR in tumor allografts” value (“Activation … in tumor allografts” below) [1] was “pronounced activation”, the “Effect on blood glucose” value [2] was “rapidly lowered blood glucose” and the “Time until blood glucose returned to basal levels” value (“Time until blood glucose returned” below) [2] was 3 to 4 h. For the same substance, the “Tumor end volume, mean” value [3, 4] was 686.3 mm^3, the “AUC tumor growth, mean” value [3, 5] was 2499.8 day × mm^3 and the “AUC tumor growth, mean” value [3, 6] was 2596.8 day × mm^3. For the same substance, the “Tumor end volume, mean” value [3, 6] was 724.6 mm^3, the “AUC tumor growth, mean” value [3, 7] was 2207.1 day × mm^3 and the “Tumor end volume, mean” value [3, 7] was 616.0 mm^3.
With human insulin [HI] the “Activation … in tumor allografts” value [1] was “pronounced activation”, the “Effect on blood glucose” value [2] was “rapidly lowered blood glucose” and the “Time until blood glucose returned” value [2] was 3 to 4 h. For the same substance, the “Tumor end volume, mean” value [3, 4] was 409.5 mm^3, the “AUC tumor growth, mean” value [3, 5] was 1542.1 day × mm^3 and the “AUC tumor growth, mean” value [3, 8] was 1539.6 day × mm^3. The “Tumor end volume, mean” value [3, 9] was 439.3 mm^3, the “AUC tumor growth, mean” value [3, 10] was 1725.4 day × mm^3 and the “Tumor end volume, mean” value [3, 10] was 434.3 mm^3. The “AUC tumor growth, mean” value [3, 6] was 1309.5 day × mm^3, the “Tumor end volume, mean” value [3, 6] was 374.5 mm^3 and the “AUC tumor growth, mean” value [3, 7] was 1483.0 day × mm^3. The “Tumor end volume, mean” value [3, 7] was 397.7 mm^3, the “AUC tumor growth, mean” value [3, 11] was 1421.9 day × mm^3 and the “Tumor end volume, mean” value [3, 11] was 365.6 mm^3.
In the case of insulin analog B10Asp [X10], the “Activation … in tumor allografts” value [1] is reported as “pronounced activation”, the “Effect on blood glucose” value [2] is reported as “rapidly lowered blood glucose” and the “Time until blood glucose returned” value [2] is reported as 3 to 4 h. The “Tumor end volume, fold change relative to vehicle” value [3, 4] was 1.5 ^* fold, the “Tumor end volume, mean” value [3, 4] was 500.5 mm^3 and the “AUC tumor growth, fold change relative to vehicle” value [3, 5] was 1.5 ^* fold. The “AUC tumor growth, mean” value [3, 5] was 1851.9 day × mm^3, the “AUC tumor growth, fold change relative to vehicle” value [3, 8] was 0.9 fold and the “AUC tumor growth, mean” value [3, 8] was 1880.9 day × mm^3. The “Tumor end volume, fold change relative to vehicle” value [3, 8] was 1.0 fold, the “Tumor end volume, mean” value [3, 9] was 500.7 mm^3 and the “AUC tumor growth, fold change relative to vehicle” value [3, 10] was 1.8 fold. For the same substance, the “AUC tumor growth, mean” value [3, 10] was 2167.5 day × mm^3, the “Tumor end volume, fold change relative to vehicle” value [3, 10] was 1.7 fold and the “Tumor end volume, mean” value [3, 10] was 558.4 mm^3. For the same substance, the “AUC tumor growth, fold change relative to vehicle” value [3, 6] was 1.8 ^* fold, the “AUC tumor growth, mean” value [3, 6] was 2060.9 day × mm^3 and the “Tumor end volume, fold change relative to vehicle” value [3, 6] was 2.0 ^* fold. The “Tumor end volume, mean” value [3, 6] was 646.8 mm^3, the “AUC tumor growth, fold change relative to vehicle” value [3, 7] was 1.6 fold and the “AUC tumor growth, mean” value [3, 7] was 1394.4 day × mm^3. The “Tumor end volume, fold change relative to vehicle” value [3, 7] was 1.9 fold, the “Tumor end volume, mean” value [3, 7] was 345.8 mm^3 and the “AUC tumor growth, fold change relative to vehicle” value [3, 11] was 1.4 fold. For the same substance, the “AUC tumor growth, mean” value [3, 11] was 1836.1 day × mm^3, the “Tumor end volume, fold change relative to vehicle” value [3, 11] was 1.3 fold and the “Tumor end volume, mean” value [3, 11] was 427.0 mm^3.
